Reference: the supplement of paper PMC10307832

Key:
Test in all cases: relative viability (nuclei count vs DMSO), 5 days (fraction); higher = more cells survive
[1] = compound: CCn1c(-c2nonc2N)nc2c(C#CC(C)(C)O)ncc(OC[C@H]3CCCNC3)c21 + CS(=O)(=O)CCNCc1ccc(-c2ccc3ncnc(Nc4ccc(OCc5cccc(F)c5)c(Cl)c4)c3c2)o1 [Lapatinib] (partner 2 µM)
Method in brief: (§1)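 Nuclei were stained with Hoechst during a one-step fixation (final 0.05% Triton X-100, 1% formaldehyde, 1 ug/ml Hoechst) carried out 5 days after dosing, then counted on 4× images. The cells, lung cancer lines in 1536-well plates, had been dosed by pin tool the day after seeding with one drug alone or a fixed anchor-drug dose plus five library-drug doses (not always all listed) in √10 steps. Relative viability is the nuclei count in treated wells divided by that in vehicle wells, and each value is the median of duplicate plates.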

[2] = compound: CCn1c(-c2nonc2N)nc2c(C#CC(C)(C)O)ncc(OC[C@H]3CCCNC3)c21 + Cc1nc(NC(=O)N2CCC[C@H]2C(N)=O)sc1-c1ccnc(C(C)(C)C(F)(F)F)c1 [Alpelisib] (partner 2 µM)
Method in brief: as §1

BAM7 + Decitabine = compound: CCOC1=CC=CC=C1N=NC2=C(NN(C2=O)C3=NC(=CS3)C4=CC=CC=C4)C [BAM7] + Nc1ncn([C@H]2C[C@H](O)[C@@H](CO)O2)c(=O)n1 [Decitabine] (partner 2 µM)
Method in brief: as §1

BAM7 + Alpelisib = compound: CCOC1=CC=CC=C1N=NC2=C(NN(C2=O)C3=NC(=CS3)C4=CC=CC=C4)C [BAM7] + Cc1nc(NC(=O)N2CCC[C@H]2C(N)=O)sc1-c1ccnc(C(C)(C)C(F)(F)F)c1 [Alpelisib] (partner 2 µM)
Method in brief: as §1

| Cell Line | relative viability ([1]; first compound 0.01 µM) | relative viability ([1]; first compound 0.03162 µM) | relative viability ([1]; first compound 0.1 µM) | relative viability ([1]; first compound 0.3162 µM) | relative viability ([1]; first compound 1 µM) | relative viability ([2]; first compound 0.01 µM) | relative viability ([2]; first compound 0.03162 µM) | relative viability ([2]; first compound 0.1 µM) | relative viability ([2]; first compound 0.3162 µM) | relative viability ([2]; first compound 1 µM) | relative viability (BAM7 + Decitabine; first compound 5 µM) | relative viability (BAM7 + Decitabine; first compound 15.81 µM) | relative viability (BAM7 + Decitabine; first compound 50 µM) | relative viability (BAM7 + Alpelisib; first compound 0.5 µM) | relative viability (BAM7 + Alpelisib; first compound 5 µM) | relative viability (BAM7 + Alpelisib; first compound 15.81 µM) | relative viability (BAM7 + Alpelisib; first compound 50 µM) | relative viability (BAM7 + Decitabine; first compound 0.5 µM) |
| --- | --- | --- | --- | --- | --- | --- | --- | --- | --- | --- | --- | --- | --- | --- | --- | --- | --- | --- |
| NCI-H358 | 0.453 | 0.485 | 0.449 | 0.4 | 0.398 | 0.896 | 0.784 | 0.787 | 0.687 | 0.701 | 0.199 | 0.232 | 0.224 | 0.953 | 0.837 | 0.859 | 0.85 |  |
| NCI-H460 | 0.949 | 1.14 | 1.02 | 0.862 | 0.775 | 0.439 | 0.496 | 0.477 | 0.447 | 0.437 | 0.455 | 0.473 | 0.449 | 0.514 | 0.468 | 0.473 | 0.403 | 0.475 |
| NCI-H520 | 0.923 | 0.952 | 0.727 | 0.454 | 0.425 | 1.01 | 0.883 | 0.605 | 0.851 | 0.547 | 0.478 | 0.484 | 0.525 | 1.03 | 1.01 | 0.947 | 0.865 | 0.54 |
| NCI-H596 | 0.935 | 0.954 | 0.92 | 0.901 | 0.986 | 0.365 | 0.522 | 0.482 | 0.487 | 0.503 | 0.984 | 0.908 | 1.09 | 0.461 | 0.463 | 0.425 | 0.492 | 0.879 |
| NCI-H647 | 0.874 | 1.23 | 1.08 | 0.788 | 0.981 | 1.2 | 1.17 | 1.02 | 1.03 | 1.23 | 0.372 | 0.436 | 0.438 | 1.27 | 1.32 | 1.05 | 1.17 | 0.404 |
| NCI-H650 | 0.733 | 0.838 | 0.783 | 0.753 | 0.741 | 1.1 | 1.21 | 1.02 | 1.04 | 1.24 | 0.323 | 0.315 | 0.448 | 1.03 | 1.33 | 1.04 | 1.08 | 0.297 |
| NCI-H661 | 0.505 | 0.539 | 0.249 | 0.502 | 0.489 | 0.562 | 0.553 | 0.603 | 0.635 | 0.576 | 0.579 | 0.611 | 0.579 | 0.736 | 0.7 | 0.699 | 0.699 | 0.597 |
| NCI-H727 | 0.796 | 0.856 | 0.593 | 0.762 | 0.66 | 0.576 | 0.527 | 0.714 | 0.608 | 0.479 | 0.954 | 0.89 | 0.808 | 0.599 | 0.576 | 0.57 | 0.663 | 0.894 |
| NCI-H838 | 1.11 | 1.13 | 1.1 | 0.853 | 0.968 | 1.05 | 1.02 | 1.03 | 0.979 | 0.989 | 0.447 | 0.452 | 0.478 | 1.06 | 1.05 | 0.989 | 1 | 0.514 |
